Reference: patent US11371097B2, “Articles for diagnosis of liver fibrosis” (THE GOVERNMENT OF THE UNITED STATES, as represented by THE …, priority 2015, dated 2022)
Where “and” joins values, the source holds several entries; their conditions need not be identical. Identical values can stand only once. Like-named read-outs stand apart in the source and are kept apart here.

What was measured:
liver = format: in vivo, Male Sprague-Dawley rats; details: for Periportal fibrosis (Masson's trichrome): 162 mg/kg/day, five-day oral administration;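 for Cytoplasmic Alteration: Severity grades from None 0% through Minimal Mild Moderate to Marked over 80% tissue affected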;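 for Inflammation: Severity grades from None 0% through Minimal Mild Moderate to Marked over 80% tissue affected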;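 for Vacuolation: Severity grades from None 0% through Minimal Mild Moderate to Marked over 80% tissue affected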
Procedure: All chemical compounds were diluted in corn oil (CAS No. 8001-30-7) (MP Biomedicals, LLC (Solon, Ohio)). The dose volume was 5 mL/kg. Doses were selected based on doses published in the DrugMatrix database, the National Toxicology Program reports, and ATSDR reports.
(§1) In vivo rat experiments were performed at Integrated Laboratory Systems (ILS, Research Triangle Park, NC). ILS's Institutional Animal Care and Use Committee approved all experimental procedures. Research was conducted in compliance with the Animal Welfare Act, and other Federal statutes and regulations relating to animals and experiments involving animals and adheres to principles stated in the “Guide for Care and Use of Laboratory Animals” as prepared by the Committee on Care and Use of Laboratory Animals of the Institute of Laboratory Animal Resources, National Research Council in facilities that are fully accredited by the Association for Assessment and Accreditation of Laboratory Animal Care, International. Male Sprague-Dawley rats (CD IGS [CRL:CD (SD)]) were purchased from Charles River Laboratories (Stone Ridge, N.Y.). Rats weighing 215-245 g (8 weeks old) were used. Briefly, rats were housed two per cage with a rat tunnel enrichment device (Bio-Serve, Frenchtown, N.J.). Rats were fed a Purina Rodent Diet No. 5002 (Ralston Purina Co., St. Louis, Mo.), supplied ad libitum. Animals received reverse osmosis-treated tap water (City of Durham, N.C.) ad libitum, which was changed at least once weekly. Controls in the animal rooms were set to maintain temperatures between 20-In vivo rat experiments were performed at Integrated Laboratory Systems (ILS, Research Triangle Park, NC). ILS's Institutional Animal Care and Use Committee approved all experimental procedures. Research was conducted in compliance with the Animal Welfare Act, and other Federal statutes and regulations relating to animals and experiments involving animals and adheres to principles stated in the “Guide for Care and Use of Laboratory Animals” as prepared by the Committee on Care and Use of Laboratory Animals of the Institute of Laboratory Animal Resources, National Research Council in facilities that are fully accredited by the Association for Assessment and Accreditation of Laboratory Animal Care, International. Male Sprague-Dawley rats (CD IGS [CRL:CD (SD)]) were purchased from Charles River Laboratories (Stone Ridge, N.Y.). Rats weighing 215-245 g (8 weeks old) were used. Briefly, rats were housed two per cage with a rat tunnel enrichment device (Bio-Serve, Frenchtown, N.J.). Rats were fed a Purina Rodent Diet No. 5002 (Ralston Purina Co., St. Louis, Mo.), supplied ad libitum. Animals received reverse osmosis-treated tap water (City of Durham, N.C.) ad libitum, which was changed at least once weekly. Controls in the animal rooms were set to maintain temperatures between 20-25° C. with a relative humidity of 30-70% and a 12-hour light/12-hour dark cycle, lights on at 6:00 AM. Clinically healthy animals were assigned to dose groups using a procedure that stratifies animals across groups by body weight such that mean body weight of each group was not statistically different from any other group using analysis of variance (Statistical Analysis System version 9.2, SAS Institute, Cary, N.C.). Animals were dosed by oral gavage for five consecutive days (+10 minutes from the previous day's dose administration time). Volume was based upon daily body weight.
Animals were observed cageside one hour following daily dose administration, then 1-2 times per day during dosing regimens. Body weights were measured daily prior to dose administration, and prior to euthanasia. Twenty-four hours after the final dose administration, animals were anesthetized with isoflurane then euthanized by exsanguination followed by decapitation. Livers were harvested at necropsy and weighed to within 0.1 g. One half of the left lobe of the liver was fixed in 10% formalin. […]

[1] = format: in vivo, Male Sprague-Dawley rats
Procedure: as §1
Animals were observed cageside one hour following daily dose administration, then 1-2 times per day during dosing regimens. Body weights were measured daily prior to dose administration, and prior to euthanasia. Twenty-four hours after the final dose administration, animals were anesthetized with isoflurane then euthanized by exsanguination followed by decapitation. Livers were harvested at necropsy and weighed to within 0.1 g. One half of the left lobe of the liver was fixed in 10% formalin. The remaining half of the left lobe of the liver was flash frozen in liquid nitrogen, then stored below −70° C. Liver specimens were frozen in less than three minutes from time of death.

[2] = test system: 67 genes on the fibrosis gene panel; experiment: Multiplexed fibrosis gene panel (QuantiGene 2.0 Plex / Bioplex) on liver RNA
Procedure: mRNA is isolated and purified from lysed tissue biopsy specimens. The target mRNA is incubated with beads conjugated to capture probes (each probe is an oligonucleotides specific for one of the genes in the panel). The target is hybridized to the probe by a capture extender-capture probe interaction. Specific mRNA targets hybridize overnight to the respective beads. The signal is amplified by incubating mRNA-capture probe pairs by affixing an amplifier affixed to a biotinylated label probe. Streptavidin-conjugated phycoerythrin (SAPE) is bound to the biotinylated probe to amplify the signal. The signal is detected and quantified by Bioplex suspension array instrumentation, which measures the SAPE fluorescence signal proportional to the amount of mRNA transcripts captured by the bead.
Candidate genes identified by co-expression modules and pathway/network approaches were fabricated into a custom gene panel using a commercial source (the QuantiGene 2.0 Plex assay, Affymetrix, Santa Clara, Calif.). A total of 71 genes plus 3 housekeeping genes were selected. Using 150 ng RNA input, samples were processed following manufacturer's instructions for purified RNA with use of the HandHeld Magnetic Plate Washer. Plates were read immediately following the final wash using the BioPlex 200 instrument (BioRad, Hercules, Calif.). The following parameters were set on the BioPlex instrument: sample size=100 μL; DD Gate=5,000-25,000; Timeout=45 sec; Bead Event/Bead Region=100.
For each sample, the average signal intensity was determined as recommended by the manufacturer. Duplicates were averaged. The average background signal for each gene was subtracted. Assay limit of detection was determined by adding three standard deviations of assay background signals to the average intensity of the background control wells. All intensities lower than the limit of detection for each probe was set to one unit above the probe's limit of detection. Probes with all intensities below the assay limit of detection were removed from the final analysis. The test gene signal was divided by the average intensities of the three normalization genes (Gapdh, Hprt1, Ppib). For each test gene, the fold change was calculated by dividing the normalized value for the treated samples by the normalized value of the vehicle-treated controls. Fold changes were plotted as log2 fold change. Gene expression data were imported into Partek Genomics Suite 6.0 (Partek, Inc., St. Louis, Mo.). Principal component analysis was used for multivariate interpretation to determine sources of variation across sample groups (Joliffe I T, Morgan B J. Principal component analysis and exploratory factor analysis. Statistical methods in medical research 1992; 1(1):69-95). Differentially expressed genes were determined by analysis of variance (ANOVA) with contrasts, setting the ANOVA factors as toxicant and the histopathological endpoint of fibrosis (any score >0). ANOVA variables were fibrosis score 0 (none) vs. score of >0 (minimal, mild, moderate, and marked). For hierarchical biclustering, differentially expressed genes were standardized by setting the genes expressed to a mean of zero and scaling to a standard deviation of one. Euclidean geometry was used to cluster row and column dissimilarity using a method of average linkage.
Chemical-dose groups were down-selected based on histopathology to conform to the 96-well assay format of the multiplexed panel of presumptive fibrosis genes. Three of the four dose groups were evaluated for the fibrogenic chemicals allyl alcohol and 4,4′-methylenedianiline. A single dose was selected with group-matched vehicle controls for each of the remaining chemicals. […] The highest dose of bromobenzene was selected because the vacuolation pathology was only observed at this dose.
Isolated liver RNA was incubated with microbead-bound capture probes specific for the 71 presumptive fibrogenic genes and three housekeeping normalization genes.

[3] = 4,4′-MDA 22 mg/kg, animals 89-92
[4] = 4,4′-MDA 59.7 mg/kg, animals 93-96
[5] = 4,4′-MDA 162 mg/kg, animals 97-100

Question: For `Nc1ccc(Cc2ccc(N)cc2)cc1` [4,4′-methylenedianiline], which “Periportal fibrosis (Masson's trichrome)” value (liver) is on record?
Answer: periportal fibrosis

Question: What about the “Periportal fibrosis (Masson's trichrome)” value (liver; listed as 4,4′-methylenediani line) of the same compound?
Answer: Perioportal fibrosis was confirmed

Question: What about the “Bile Duct Hyperplasia and Fibroplasia” value (liver; [3]) of the same compound?
Answer: 0

Question: And the Inflammation (liver; [3])?
Answer: 0

Question: What about the Necrosis (liver; [3]) of the same compound?
Answer: 0

Question: And the Vacuolation (liver; [3])?
Answer: 0

Question: What about the “Bile Duct Hyperplasia and Fibroplasia” value (liver; [4]) of the same compound?
Answer: 2 and 3

Question: And the Inflammation (liver; [4])?
Answer: 2 and 3

Question: And the Vacuolation (liver; [4])?
Answer: 0

Question: And the “Bile Duct Hyperplasia and Fibroplasia” value (liver; [5])?
Answer: 3 and 2

Question: What about the “Cytoplasmic Alteration” value (liver; [5]) of the same compound?
Answer: 2 and 3

Question: And the Inflammation (liver; [5])?
Answer: 2

Question: What about the Necrosis (liver; [5]) of the same compound?
Answer: 2 and 1

Question: And the Vacuolation (liver; [5])?
Answer: 0

Question: And the “Combined histopathological scores as percent of animals with pathology” value (liver; across dose groups, five days (figure legend))?
Answer: dose-dependent increase in severe pathology

Question: What about the Fibrosis histopathology (liver; low-dose (carbon tetrachloride: all doses)) of the same compound?
Answer: without fibrosis

Question: What about the Degree of fibrosis (liver; oral gavage five days, across doses) of the same compound?
Answer: dose-dependent increase in the degree of fibrosis

Question: And the “Histopathology: bile duct hyperplasia, fibrosis, necrosis” value (liver; oral gavage five days, high doses)?
Answer: caused bile duct hyperplasia comorbid with fibrosis and necrosis

Question: And the “Body weight gain over the five experimental dosing days” value ([1]; dose groups)?
Answer: decrease in body weight gain

Question: And the “Body weight change over the five-day exposure interval” value ([1]; highest dose(s))?
Answer: gained less weight over the five-day exposure interval than their low-dose counterparts

Question: And the Anxa2 differential expression [2, 4]?
Answer: 2.439 and 1.755 and 2.514

Question: What about the Arpc1b differential expression [2, 4] of the same compound?
Answer: 1.147 and 1.069 and 1.373

Question: And the C1qb differential expression [2, 4]?
Answer: 0.893 and 0.937 and 1.469

Question: What about the CD53 differential expression [2, 4] of the same compound?
Answer: 0.950 and 1.045 and 1.560

Question: And the Capg differential expression [2, 4]?
Answer: 1.169 and 1.723 and 2.026

Question: And the Ccl2 differential expression [2, 4]?
Answer: 1.483 and 1.928 and 1.705

Question: And the Ctgf differential expression [2, 4]?
Answer: 1.026 and 0.691 and 1.013

Question: And the Cxcl16 differential expression [2, 4]?
Answer: 1.969 and 1.196 and 2.174

Question: What about the Cyba differential expression [2, 4] of the same compound?
Answer: 1.216 and 1.165 and 2.041

Question: And the Dsc2 differential expression [2, 4]?
Answer: 0.258 and 0.244 and 0.474

Question: What about the Fam102b differential expression [2, 4] of the same compound?
Answer: 0.577 and 0.939 and 0.845

Question: And the Fam105a differential expression [2, 4]?
Answer: 1.236 and 1.186 and 1.900

Question: And the Fxyd5 differential expression [2, 4]?
Answer: 1.025 and 0.916 and 1.613

Question: And the Gpnmb differential expression [2, 4]?
Answer: 1.876 and 1.911 and 3.162

Question: What about the Itga1 differential expression [2, 4] of the same compound?
Answer: 1.064 and 1.196 and 1.743

Question: What about the Itgb2 differential expression [2, 4] of the same compound?
Answer: 0.709 and 1.138 and 1.216

Question: And the Lame2 differential expression [2, 4]?
Answer: 1.485 and 0.755 and 1.416

Question: What about the Lbp differential expression [2, 4] of the same compound?
Answer: 2.023 and 1.422 and 2.026

Question: And the Lgals3 differential expression [2, 4]?
Answer: 1.931 and 2.085 and 2.575

Question: What about the Pkm2 differential expression [2, 4] of the same compound?
Answer: 1.314 and 1.491 and 2.389

Question: What about the Plau differential expression [2, 4] of the same compound?
Answer: 0.941 and 0.957 and 1.332

Question: What about the RT1-DMa differential expression [2, 4] of the same compound?
Answer: 1.381 and 2.022 and 2.522 and 1.938

Question: What about the RT1-Da differential expression [2, 4] of the same compound?
Answer: 1.431 and 2.375 and 2.640

Question: What about the Serpine1 differential expression [2, 4] of the same compound?
Answer: 1.151 and 1.305 and 1.475

Question: And the TagIn2 differential expression [2, 4]?
Answer: 1.404 and 1.169 and 1.971

Question: What about the Timp1 differential expression [2, 4] of the same compound?
Answer: 1.871 and 1.153 and 2.099

Question: And the RT1-DMa differential expression [2, 5]?
Answer: 1.970 and 1.713 and 2.157 and 1.814

Question: And the “Hierarchical biclustering of log2 fold-changes in panel gene expression” value ([2]; liver, 67 genes)?
Answer: clustered together
